In patent publication US12172995B2, “Substituted indole and indazole compounds” (BRISTOL-MYERS SQUIBB COMPANY, priority 2018, dated 2024) one finds IC50 data, which are given here for twelve compounds.

Where only a bound is given, the exact number is not on record here.

Assay type in all cases: cell-based
For one test, the target named is T1, human TLR9 (Homo sapiens, UniProt Q9NR96).
T1 construct: host or cells: HEK-Blue cells
T1 sequence (Q9NR96 26-1032): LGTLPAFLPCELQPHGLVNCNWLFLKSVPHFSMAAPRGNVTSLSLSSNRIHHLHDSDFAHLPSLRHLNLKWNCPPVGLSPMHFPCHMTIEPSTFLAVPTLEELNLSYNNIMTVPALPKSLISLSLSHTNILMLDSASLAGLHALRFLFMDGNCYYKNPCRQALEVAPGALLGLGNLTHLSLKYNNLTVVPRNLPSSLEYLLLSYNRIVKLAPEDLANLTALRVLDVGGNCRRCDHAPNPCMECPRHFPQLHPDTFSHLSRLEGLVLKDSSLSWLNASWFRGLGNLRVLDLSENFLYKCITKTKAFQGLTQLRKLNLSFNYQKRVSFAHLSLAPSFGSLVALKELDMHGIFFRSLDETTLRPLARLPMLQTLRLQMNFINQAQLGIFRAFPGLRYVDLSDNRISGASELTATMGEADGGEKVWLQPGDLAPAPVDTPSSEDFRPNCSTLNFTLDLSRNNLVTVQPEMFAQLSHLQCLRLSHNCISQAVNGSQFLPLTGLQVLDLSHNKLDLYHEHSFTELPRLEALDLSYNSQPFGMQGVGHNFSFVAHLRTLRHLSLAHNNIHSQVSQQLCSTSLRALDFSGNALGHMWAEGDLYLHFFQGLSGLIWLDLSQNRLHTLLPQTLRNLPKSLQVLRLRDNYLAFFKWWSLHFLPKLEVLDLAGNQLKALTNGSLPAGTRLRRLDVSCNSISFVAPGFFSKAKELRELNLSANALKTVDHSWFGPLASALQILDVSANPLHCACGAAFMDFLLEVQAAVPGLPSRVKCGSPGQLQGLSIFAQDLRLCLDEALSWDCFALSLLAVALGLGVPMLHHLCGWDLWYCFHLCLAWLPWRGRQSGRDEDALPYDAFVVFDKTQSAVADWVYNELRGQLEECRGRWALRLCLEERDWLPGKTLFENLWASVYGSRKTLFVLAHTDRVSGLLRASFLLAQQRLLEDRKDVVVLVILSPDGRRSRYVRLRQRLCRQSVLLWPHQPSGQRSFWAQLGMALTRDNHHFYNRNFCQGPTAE
Briefly: TLR9 inhibition reporter assay (HEK-Blue SEAP). The note with it: HEK-Blue cells overexpressing human TLR9, stimulated with ODN2006 5 nM, 22 hour incubation. The gist of the method:
(§1)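 Cells are seeded, given test compound across 0.05 nM to 50 μM, and after 30 min at room temperature stimulated with the receptor's agonist (gardiquimod 7.5 μM, R848 15.9 μM or ODN2006 5 nM for TLR7, 8, 9). SEAP is measured after 22 h at 37 °C.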

Another test concerns the target T2, human TLR8 (Homo sapiens, UniProt Q9NR97).
T2 construct: host or cells: HEK-Blue cells
T2 sequence (Q9NR97 27-1041): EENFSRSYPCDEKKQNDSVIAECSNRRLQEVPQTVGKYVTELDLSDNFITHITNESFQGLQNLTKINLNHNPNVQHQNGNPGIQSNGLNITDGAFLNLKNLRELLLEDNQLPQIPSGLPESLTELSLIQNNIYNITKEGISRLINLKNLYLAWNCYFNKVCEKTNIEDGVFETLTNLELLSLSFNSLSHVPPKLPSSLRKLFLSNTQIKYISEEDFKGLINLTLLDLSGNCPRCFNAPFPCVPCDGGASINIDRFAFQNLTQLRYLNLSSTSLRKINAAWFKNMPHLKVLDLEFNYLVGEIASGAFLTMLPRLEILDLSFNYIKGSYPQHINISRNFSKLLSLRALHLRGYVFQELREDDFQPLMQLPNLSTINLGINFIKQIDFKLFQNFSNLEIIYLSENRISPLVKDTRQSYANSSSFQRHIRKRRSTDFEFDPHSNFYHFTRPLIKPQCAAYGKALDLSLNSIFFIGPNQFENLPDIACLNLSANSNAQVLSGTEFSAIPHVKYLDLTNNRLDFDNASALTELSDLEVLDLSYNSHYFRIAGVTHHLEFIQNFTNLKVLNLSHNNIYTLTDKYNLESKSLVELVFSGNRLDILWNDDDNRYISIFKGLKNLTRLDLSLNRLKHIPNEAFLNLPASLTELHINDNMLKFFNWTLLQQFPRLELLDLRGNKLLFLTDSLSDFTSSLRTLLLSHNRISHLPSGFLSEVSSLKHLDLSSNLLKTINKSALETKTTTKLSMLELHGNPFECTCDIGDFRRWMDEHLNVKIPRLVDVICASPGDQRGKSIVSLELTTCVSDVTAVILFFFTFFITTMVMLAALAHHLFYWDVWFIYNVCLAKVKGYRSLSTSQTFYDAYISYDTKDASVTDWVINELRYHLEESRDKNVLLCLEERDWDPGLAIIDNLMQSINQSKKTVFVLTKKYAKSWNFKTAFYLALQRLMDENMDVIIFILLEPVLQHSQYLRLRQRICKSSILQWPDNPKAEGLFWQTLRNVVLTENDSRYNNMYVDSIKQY
Briefly: TLR8 inhibition reporter assay (HEK-Blue SEAP). The note with it: HEK-Blue cells overexpressing human TLR8, stimulated with R848 15.9 μM, 22 hour incubation. The gist of the method: as §1

In another test the target is T3, human TLR7 (Homo sapiens, UniProt Q9NYK1).
T3 construct: host or cells: HEK-Blue cells
T3 sequence (Q9NYK1 27-1049): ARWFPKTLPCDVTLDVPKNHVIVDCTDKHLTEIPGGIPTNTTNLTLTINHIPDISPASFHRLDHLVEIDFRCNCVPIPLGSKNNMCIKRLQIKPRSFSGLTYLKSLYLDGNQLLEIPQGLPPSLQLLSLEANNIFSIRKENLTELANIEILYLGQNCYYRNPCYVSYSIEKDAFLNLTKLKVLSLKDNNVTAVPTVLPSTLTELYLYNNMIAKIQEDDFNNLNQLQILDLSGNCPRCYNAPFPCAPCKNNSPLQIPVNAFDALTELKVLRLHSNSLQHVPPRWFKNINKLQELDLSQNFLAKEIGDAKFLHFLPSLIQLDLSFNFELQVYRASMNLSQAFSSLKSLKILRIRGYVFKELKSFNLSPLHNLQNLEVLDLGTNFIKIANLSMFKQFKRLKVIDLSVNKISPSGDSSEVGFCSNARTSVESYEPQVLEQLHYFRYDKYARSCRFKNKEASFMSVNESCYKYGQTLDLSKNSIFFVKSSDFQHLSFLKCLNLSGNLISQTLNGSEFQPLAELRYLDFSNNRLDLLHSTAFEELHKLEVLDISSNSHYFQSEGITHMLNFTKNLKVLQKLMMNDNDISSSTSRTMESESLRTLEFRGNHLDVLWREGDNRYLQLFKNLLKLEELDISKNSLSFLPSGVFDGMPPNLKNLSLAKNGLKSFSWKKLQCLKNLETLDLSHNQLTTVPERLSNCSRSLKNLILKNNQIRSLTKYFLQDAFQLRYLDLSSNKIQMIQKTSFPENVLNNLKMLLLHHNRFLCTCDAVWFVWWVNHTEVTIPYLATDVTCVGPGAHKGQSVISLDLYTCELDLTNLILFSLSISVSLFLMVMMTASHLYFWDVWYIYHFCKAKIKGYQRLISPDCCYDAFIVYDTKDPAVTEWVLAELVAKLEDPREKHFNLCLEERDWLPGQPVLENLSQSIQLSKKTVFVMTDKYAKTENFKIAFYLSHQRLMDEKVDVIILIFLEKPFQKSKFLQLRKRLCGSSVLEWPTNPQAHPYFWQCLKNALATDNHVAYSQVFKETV
Briefly: TLR7 inhibition reporter assay (HEK-Blue SEAP). As to conditions: HEK-Blue cells overexpressing human TLR7, stimulated with gardiquimod 7.5 μM, 22 hour incubation. Summed up: as §1

Turning to `Cc1cc(-c2cc3[nH]nc(C4CCC(NCCS(C)(=O)=O)CC4)c3cc2C(C)C)cn2ncnc12` (stereo not drawn) [Example 127, 4-(5-isopropyl-6-(8-methyl-[1,2,4]triazolo[1,5-a]pyridin-6-yl)-1H-indazol-3-yl)-N-(2-(methylsulfonyl)ethyl) cyclohexan-1-amine], the figures for the IC50 at human TLR9, against human TLR8 and at human TLR7 were 8470 nM, 0.1 nM and 1.9 nM, respectively.

Take `Cc1cc(-c2cc3[nH]nc(C4CCC(N5CC6(CCOC6)C5)CC4)c3cc2C(C)C)cn2ncnc12` (stereo not drawn) [Example 157, 2-(4-(5-isopropyl-6-(8-methyl-[1,2,4]triazolo[1,5-a]pyridin-6-yl)-1H-indazol-3-yl)cyclohexyl)-6-oxa-2-azaspiro[3.4]octane]: the values for the IC50 against human TLR9, at human TLR8 and against human TLR7 were 6730 nM, 0.4 nM and 0.5 nM, respectively.

In the case of `Cc1cc(-c2cc3[nH]nc(C4CCC(N5CC(F)(F)C5)CC4)c3cc2C(C)C)cn2ncnc12` (single isomer, unassigned) [Example 135, 6-(3-(4-(3,3-difluoroazetidin-1-yl)cyclohexyl)-5-isopropyl-1H-indazol-6-yl)-8-methyl-[1,2,4]triazolo[1,5-a]pyridine], the IC50 against human TLR9 amounted to 18900 nM; at human TLR8, 9.4 nM; against human TLR7, 15.5 nM.

For `Cc1cc2c(C3CCCN(CC(=O)N(C)C)C3)n[nH]c2cc1-c1cc(C)c2ncnn2c1` (stereo not drawn) [Example 53, N,N-dimethyl-2-(3-(5-methyl-6-(8-methyl-[1,2,4]triazolo[1,5-a]pyridin-6-yl)-1H-indazol-3-yl)piperidin-1-yl)acetamide], the IC50 against human TLR9 turned out to be 5830 nM; against human TLR8, 1.2 nM; against human TLR7 it was 44.2 nM.

As for `Cc1cc2c(C3CCN(CC(=O)N(C)C)CC3)n[nH]c2cc1-c1cc(C)c2ncnn2c1` [Example 23, N,N-dimethyl-2-(4-(5-methyl-6-(8-methyl-[1,2,4]triazolo[1,5-a]pyridin-6-yl)-1H-indazol-3-yl)piperidin-1-yl)acetamide], the IC50 at human TLR9 worked out at 6630 nM; against human TLR8, 2.9 nM; against human TLR7 it was 43.4 nM.

For the compound `COc1cc(-c2cc3[nH]nc(C4CCCNC4)c3cc2C)cn2ncnc12` (stereo not drawn) [Example 45, 8-methoxy-6-(5-methyl-3-(piperidin-3-yl)-1H-indazol-6-yl)-[1,2,4]triazolo[1,5-a]pyridine], the IC50 against human TLR9 was at least 50000 nM; on human TLR8, 0.7 nM; at human TLR7 it was 19.2 nM.

Take `Cc1cc2c(C3CCN(CCC#N)CC3)n[nH]c2cc1-c1cc(C)c2ncnn2c1` [Example 72, 3-(4-(5-methyl-6-(8-methyl-[1,2,4]triazolo[1,5-a]pyridin-6-yl)-1H-indazol-3-yl)piperidin-1-yl)propanenitrile]: the IC50 stood at 11200 nM on human TLR9, 2.3 nM against human TLR8 and 50.8 nM against human TLR7.

Regarding `Cc1cc(-c2cc(C)c3ncnn3c2)cc2[nH]nc(OC3CCN(Cc4cn(C)nn4)CC3)c12` [Example 193, 8-methyl-6-(4-methyl-3-((1-((1-methyl-1H-1,2,3-triazol-4-yl)methyl)piperidin-4-yl)oxy)-1H-indazol-6-yl)-[1,2,4]triazolo[1,5-a]pyridine], the IC50 against human TLR9 was 3730 nM; on human TLR8, 1.6 nM; at human TLR7, 13.2 nM.

Turning to `Cc1cc2c(N3CCNCC3)n[nH]c2cc1-c1cc(C)c2ncnn2c1` [Example 205, 8-methyl-6-(5-methyl-3-(piperazin-1-yl)-1H-indazol-6-yl)-[1,2,4]triazolo[1,5-a]pyridine], the results for the IC50 against human TLR9, on human TLR8 and at human TLR7 were 6100 nM, 0.7 nM and 14.1 nM, respectively.

With `CCCN1CCC(c2n[nH]c3cc(-c4cc(C)c5ncnn5c4)c(C)cc23)CC1` [Example 22, 8-methyl-6-(5-methyl-3-(1-propylpiperidin-4-yl)-1H-indazol-6-yl)-[1,2,4]triazolo[1,5-a]pyridine], the IC50 on human TLR9 turned out to be 3130 nM; on human TLR8 it was 0.8 nM; at human TLR7 it was 17.7 nM.

On to `Cc1cc(-c2cc3[nH]nc(C4CCC(N5CC(CO)(CO)C5)CC4)c3cc2C(C)C)cn2ncnc12` (stereo not drawn) [Example 146, (1-(4-(5-isopropyl-6-(8-methyl-[1,2,4]triazolo[1,5-a]pyridin-6-yl)-1H-indazol-3-yl)cyclohexyl)azetidine-3,3-diyl)dimethanol], for which the IC50 against human TLR9 was at least 50000 nM; against human TLR8 it was 2.6 nM; on human TLR7, 4.7 nM.

With `Cc1cc(-c2cc(C)c3ncnn3c2)cc2[nH]nc(C3CCCN(C(=O)CN(C)C)C3)c12` (stereo not drawn) [Example 5, 2-(dimethylamino)-1-(3-(4-methyl-6-(8-methyl-[1,2,4]triazolo[1,5-a]pyridin-6-yl)-1H-indazol-3-yl)piperidin-1-yl)ethan-1-one], the half-inhibitory concentration (IC50) at human TLR9 came out at 1560 nM; against human TLR8, 13.5 nM; against human TLR7, 4.9 nM.
